Results reported in US20050256179A1, “Selective pharmacologic inhibition of protein trafficking and related methods of treating human diseases” (priority 2003, published 2005).
Converted amounts (≈) assume the structure as drawn.

What was measured:
[1] = system: HSV; assay: Guinea pig topical HSV model; type: in vivo; details: data not shown
Method: Representative viruses from families likely to utilize the golgi were tested. […] (data not shown).

[2] = system: GS28; assay: GS28 expression by Western blotting; type: cell-based; details: for GS28 expression: 100 ng/ml
Method: The culture medium was removed by vacuuming (for attached cells) or by low speed centrifugation (for suspension cells) for 5-7 minutes at room temperature. The cells were wasedh twith PBS, spun at 1200 rpm and the cell pellets were kept on ice. 300 μl/2.0×10^7 cells of ice cold lysis buffer was added with freshly added protease inhibitors. Cell pellets were gently resuspended and incubated on ice for at least 30 min, vortexed a few times during incubation. Cell lysate was spun at 14,000 rpm for 2-5 min at 4° C. The supernatant was transferred to a new microfuge tube and the pellet was discarded. An aliquot of sample was mixed with an equal volume of 2× sample buffer (InVitrogen), and stored at −80° C. Protein concentration was determined by using “BCA protein assay reagent kit” from Pierce.
Protein samples (in sample buffer) were boiled for 1-3 minutes and put on ice. Same amount of protein were loaded on the NuPage gel (InVitrogen). After the electrophoresis was complete, proteins were transferred from the gel to a PVDF membrane using the electro-blotting apparatus from InVitrogen; the voltage was set to 25 for 2-3 hr. Block non-specific binding by incubating membrane with 5% milk (in PBS, 0.1% tween 20) for at least 30 min at room temperature or overnight at 4° C. The blocked membrane was incubated with primary antibody (See TABLE 2) diluted in 5% milk for 1 hour at room temperature. Optimal antibody dilution depends on the company, the amount of protein. Dilutions of 1:1000 were generally used for the primary antibodies from Santa Cruz. The membrane was washed with PBS, 0.1% tween 3-4 times 5 mins. The membrane was incubated for 30-60 minutes at room temperature with horseradish peroxidase (HRP) conjugated secondary antibody diluted in 5% milk. We usually used 1:4000 dilution for the secondary antibody from Santa Cruz. The membrane was washed 3-4 times with PBS, 0.1% tween, each time 15 minutes. The detection solutions A and B were mixed in a ratio 40:1 and Pipetted onto the membrane, and incubated for 5 min at RT. A sheet of Hyper film ECL was placed on the top of the membrane in the dark and exposed for 1 min, or adjust accordingly.
To further examine the putative protein trafficking effects of AVP 893, other proteins in this pathway were tested in vitro in B16 and other cell lines. The effect of AVP 893 on cellular proteins was corroborated in B16 cells and extended to include a time-course (FIG. 17). B16-F10 tumor cells were seeded in T75 flasks at 20% confluence and cultured overnight. AVP 893 (100 ng/ml) was added to several flasks and one flask of cells was harvested at several time points following addition of compound. Lysates were prepared, separated by electrophoresis, and probed with antibody as described above in the general Western blotting protocol. Drug effects on GS28 and nicastrin paralleled each other and were progressively stronger with longer drug incubations. […] Other cell lines were tested for their expression of GS28 and nicastrin and found to respond similarly to drug, although quantitative differences were evident. Tumor cell lines found to respond similarly to AVP 893 include CAK1, SF295, PC3, MOLT4, Neuro2a, and RBL (FIGS. 18, 19, and 20). For the experiment shown in FIG. 18, LOX, CAKI, and 3T3 cell lines were treated as described for FIG. 17. For the results shown in FIG. 19, SF295, PC3, MOLT-4, and Neuro2a cells were treated as described for FIG. 17. For the results shown in FIG. 20, LOX, 3T3, and RBL cell lines were treated with varying concentrations of AVP 893 as described for FIG. 17. The effects on LOX cells were less evident. […] Levels of calnexin, a resident ER protein used as a control, were unchanged in drug-treated cells.

[3] = system: HCC 1806; assay: Inhibition of tumor cell proliferation in vitro (SRB total protein); type: cell-based; details: Homo sapiens, HCC1806, 72 h, in-house head-to-head, about 72 hours, read-out: IC50
Method: (§1) For a typical screening experiment, cells are inoculated into 96 well microtiter plates in 100 μl at plating densities ranging from 5,000 to 40,000 cells/well depending on the doubling time of individual cell lines. After cell inoculation, the microtiter plates are incubated at 37° C., 5% or 10% CO2—depending on the cell line and media—95% air and 100% relative humidity for 24 h prior to addition of experimental drugs. After 24 h, two plates of each cell line are fixed in situ with TCA, to represent a measurement of the cell population for each cell line at the time of drug addition. Following drug addition, the plates are incubated for an additional 48 h at 37° C., 5%/10% CO2, 95% air, and 100% relative humidity. For adherent cells, the assay is terminated by the addition of cold TCA. Cells are fixed in situ by the gentle addition of 50 μl of cold 50% (w/v) TCA (final concentration, 10% TCA) and incubated for 60 minutes at 4° C. The supernatant is discarded, and the plates are washed five times with tap water and air-dried. Sulforhodamine B (SRB) solution (10011) at 0.4% (w/v) in 1% acetic acid is added to each well, and plates are incubated for 10 minutes at room temperature. After staining, unbound dye is removed by washing five times with 1% acetic acid and the plates are air-dried. Bound stain is subsequently solubilized with 10 mM trizma base, and the absorbance is read on an automated plate reader at a wavelength of 515 nm. For suspension cells, the methodology is the same except that the assay is terminated by fixing settled cells at the bottom of the wells by gently adding 50 μl of 80% TCA (final concentration, 16% TCA). Using the seven absorbance measurements [time zero, control growth, and test growth in the presence of drug at the five concentration levels], the percentage growth is calculated at each of the drug concentrations levels.
(§2) Brefeldin A was tested by the NCI for inhibition of tumor cell proliferation in the 60-cell screen. The NCI 60-cell screen was performed essentially as described for FIG. 9. Data available from the NCI database for Brefeldin A was compared with more recent AVP 893 data. […] Several tumor cell lines were cultured in the presence of either AVP 893 or Brefeldin A for about 72 hours before assessing proliferation response by measuring total protein (SRB), as described for FIG. 9. The results of the head-to-head comparisons performed in-house also show substantial variation in the relative proliferative responses of cells to Brefeldin A and AVP 893 in vitro (TABLE 3).

[4] = system: SW480; assay: as above; type: cell-based; details: Homo sapiens, column Avanir, read-out: IC50 (ng/ml), Avanir
Method: as §1, §2

O=C(Nc1ccc(-c2nc3cc(NC(=O)C4CCCCC4)ccc3[nH]2)cc1)C1CCCCC1 [AVP 893]
viral activity in vivo [1]: may inhibit viral activity in vivo | expression of GS28 and GS15 compared with monensin, Brefeldin A, rapamycin ([2]; 3T3 cells, 200 ng/ml, 18 hour): decreased the expression of GS28 and GS15 more markedly than the other three agents | IC50 for GS28 expression ([2]; 3T3 cells, overnight): 10 and 100 ng/ml | levels of GS28 ([2]; 3T3 fibroblast cell line): virtually eliminated | GS28 expression ([2]; B16 cells, two days of culture): complete loss of GS28 | GS28 or nicastrin expression ([2]; resistant line H-460, overnight): little effect | GS28 expression ([2]; stimulated BALB/c spleen cells, 20 hours): abrogated | IC50 [3]: 0.004 µg/mL (≈ 0.009 µM) | IC50 [4]: 1500 ng/mL (≈ 3.37 µM)
